{
  "source": "paper PMC2919811",
  "about": "(Analytical biochemistry, 2010)",
  "key": {"OAT3": {"target": "T1, OAT3 (Homo sapiens, UniProt Q8TCC7)", "T1 sequence (Q8TCC7 1-542)": "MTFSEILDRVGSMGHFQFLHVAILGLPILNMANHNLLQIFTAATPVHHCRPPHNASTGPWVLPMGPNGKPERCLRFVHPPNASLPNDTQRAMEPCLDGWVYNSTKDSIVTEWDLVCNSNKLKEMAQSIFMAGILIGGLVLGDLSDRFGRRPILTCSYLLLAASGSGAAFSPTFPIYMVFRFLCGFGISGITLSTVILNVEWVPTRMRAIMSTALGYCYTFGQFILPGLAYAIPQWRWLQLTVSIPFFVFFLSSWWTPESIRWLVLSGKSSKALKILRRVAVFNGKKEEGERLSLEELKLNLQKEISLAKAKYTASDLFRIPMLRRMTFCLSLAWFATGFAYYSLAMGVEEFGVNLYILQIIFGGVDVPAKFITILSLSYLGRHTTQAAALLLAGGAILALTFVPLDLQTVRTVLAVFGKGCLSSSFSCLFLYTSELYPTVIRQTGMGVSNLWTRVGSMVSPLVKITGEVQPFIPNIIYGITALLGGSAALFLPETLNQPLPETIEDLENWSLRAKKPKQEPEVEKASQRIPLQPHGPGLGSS", "assay_type": "cell-based", "conditions": "10 μM 8-FcA, 20 minutes"}, "OCT1": {"target": "T2, OCT1 (Homo sapiens, UniProt O15245)", "T2 sequence (O15245 1-554)": "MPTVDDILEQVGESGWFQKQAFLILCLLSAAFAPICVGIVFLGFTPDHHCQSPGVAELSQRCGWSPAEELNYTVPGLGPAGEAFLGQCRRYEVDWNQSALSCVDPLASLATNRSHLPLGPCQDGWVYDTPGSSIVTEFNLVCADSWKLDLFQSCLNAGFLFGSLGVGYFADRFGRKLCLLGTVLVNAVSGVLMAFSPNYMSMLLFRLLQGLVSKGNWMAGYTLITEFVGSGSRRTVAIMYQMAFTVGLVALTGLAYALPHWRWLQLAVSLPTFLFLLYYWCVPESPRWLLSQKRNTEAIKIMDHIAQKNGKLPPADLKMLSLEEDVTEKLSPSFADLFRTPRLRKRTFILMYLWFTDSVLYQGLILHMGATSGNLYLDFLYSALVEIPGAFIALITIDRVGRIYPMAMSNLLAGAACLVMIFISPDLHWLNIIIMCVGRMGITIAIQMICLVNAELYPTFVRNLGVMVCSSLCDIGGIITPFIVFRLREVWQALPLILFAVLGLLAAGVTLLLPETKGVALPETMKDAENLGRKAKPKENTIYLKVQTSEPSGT", "experiment": "Cellular accumulation in CHO cells transiently transfected with OCT1", "assay_type": "cell-based", "conditions": "10 μM 8-FcA, 20 minutes"}, "OATP1B1": {"target": "OATP1B1 (Homo sapiens, UniProt Q9Y6L6)", "sequence (Q9Y6L6 whole entry)": "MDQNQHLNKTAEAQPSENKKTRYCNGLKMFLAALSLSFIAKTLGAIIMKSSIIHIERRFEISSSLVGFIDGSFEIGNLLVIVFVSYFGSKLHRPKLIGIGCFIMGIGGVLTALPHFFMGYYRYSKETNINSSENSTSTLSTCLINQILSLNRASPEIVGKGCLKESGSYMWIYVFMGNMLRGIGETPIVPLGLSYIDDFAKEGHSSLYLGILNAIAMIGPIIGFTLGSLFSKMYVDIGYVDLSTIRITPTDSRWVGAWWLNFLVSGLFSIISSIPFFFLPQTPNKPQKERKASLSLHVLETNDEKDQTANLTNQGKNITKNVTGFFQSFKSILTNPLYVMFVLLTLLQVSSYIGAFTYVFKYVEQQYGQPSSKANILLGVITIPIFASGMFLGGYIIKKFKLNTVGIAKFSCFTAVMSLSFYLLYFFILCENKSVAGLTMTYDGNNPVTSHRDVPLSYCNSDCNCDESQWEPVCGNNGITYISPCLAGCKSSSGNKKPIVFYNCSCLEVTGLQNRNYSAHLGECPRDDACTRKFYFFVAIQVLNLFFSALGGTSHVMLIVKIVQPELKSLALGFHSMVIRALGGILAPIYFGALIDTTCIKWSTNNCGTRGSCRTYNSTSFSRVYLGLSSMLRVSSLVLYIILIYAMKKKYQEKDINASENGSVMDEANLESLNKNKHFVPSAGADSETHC", "experiment": "Substrate uptake and transport kinetics in CHO cells stably expressing OATP1B1"}, "OATP1B3 [1]": {"target": "T3, OATP1B3 (Homo sapiens, UniProt Q9NPD5)", "T3 sequence (Q9NPD5 1-702)": "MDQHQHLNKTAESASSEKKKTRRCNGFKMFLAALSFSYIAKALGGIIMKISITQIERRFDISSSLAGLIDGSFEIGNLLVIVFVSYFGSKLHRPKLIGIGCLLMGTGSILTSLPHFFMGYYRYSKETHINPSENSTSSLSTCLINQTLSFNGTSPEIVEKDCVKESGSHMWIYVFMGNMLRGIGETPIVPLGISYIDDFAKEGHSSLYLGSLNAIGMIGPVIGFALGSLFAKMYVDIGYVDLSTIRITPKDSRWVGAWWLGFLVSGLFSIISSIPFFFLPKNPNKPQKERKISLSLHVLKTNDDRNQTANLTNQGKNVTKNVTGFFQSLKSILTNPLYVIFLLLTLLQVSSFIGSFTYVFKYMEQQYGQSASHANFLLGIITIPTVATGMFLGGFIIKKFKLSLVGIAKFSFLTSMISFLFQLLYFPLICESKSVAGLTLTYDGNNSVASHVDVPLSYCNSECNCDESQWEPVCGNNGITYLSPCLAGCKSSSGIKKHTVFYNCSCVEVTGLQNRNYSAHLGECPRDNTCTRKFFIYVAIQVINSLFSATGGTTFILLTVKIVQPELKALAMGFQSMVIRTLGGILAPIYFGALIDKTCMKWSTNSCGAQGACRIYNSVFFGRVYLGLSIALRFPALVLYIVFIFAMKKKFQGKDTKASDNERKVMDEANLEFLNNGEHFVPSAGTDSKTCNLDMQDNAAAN", "experiment": "Substrate uptake and transport kinetics in CHO cells stably expressing OATP1B3"}, "OATP1B3 [2]": {"target": "T3, OATP1B3", "experiment": "Cellular accumulation in CHO cells transiently transfected with OATP1B3", "conditions": "10 μM 8-FcA, 20 minutes"}, "[3]": {"conditions": "2 μM substrate, five minute accumulation, CHOvector = 1"}, "[4]": {"conditions": "8-FcA 0.25-25 μM, 10 min uptake, CHOvector subtracted, mean ± standard error"}},
  "note": "Where “and” joins values, the source holds several entries; their conditions need not be identical. Identical values can stand only once.",
  "data": [
    {"compound": "Nc1ncnc2c1nc(SCCNC(=S)Nc1ccc(-c3c4ccc(=O)cc-4oc4cc(O)ccc34)c(C(=O)O)c1)n2[C@@H]1O[C@@H]2COP(=O)(O)O[C@H]2[C@H]1O", "note": "[8-FcA, 8-(2-[Fluoresceinyl]aminoethylthio) adenosine-3', 5'-cyclic monophosphate]", "values": [
      {"measurement": "cellular accumulation by fluorescence microscopy, OAT3", "setting": "OAT3", "result": "negative"},
      {"measurement": "cellular accumulation by fluorescence microscopy, OCT1", "setting": "OCT1", "result": "negative"},
      {"measurement": "transport efficiency, Vmax/Km (OATP1B1)", "setting": "OATP1B1", "result": 0.069, "unit": "μL/min/cm^2"},
      {"measurement": "cellular accumulation relative to control, CHOOATP1B1", "setting": "OATP1B1; [3]", "result": "robust accumulation"},
      {"measurement": "Vmax of OATP1B1-mediated transport", "setting": "OATP1B1; [4]", "result": "0.20 pmol/min/cm^2 and 0.20±0.01 pmol/min/cm^2"},
      {"measurement": "transport efficiency, Vmax/Km (OATP1B3)", "setting": "OATP1B3 [1]", "result": 0.183, "unit": "μL/min/cm^2"},
      {"measurement": "cellular accumulation relative to control, CHOOATP1B3", "setting": "OATP1B3 [1]; [3]", "result": "robust accumulation"},
      {"measurement": "Vmax of OATP1B3-mediated transport", "setting": "OATP1B3 [1]; [4]", "result": "0.33 pmol/min/cm^2 and 0.33±0.02 pmol/min/cm^2"},
      {"measurement": "cellular accumulation by fluorescence microscopy, OATP1B3", "setting": "OATP1B3 [2]", "result": "readily accumulated"}
    ]}
  ]
}
